The supplement of paper PMC10307832

Key:
Experiment in all cases: relative viability (nuclei count vs DMSO), 5 days (fraction); higher = more cells survive
Zosuquidar + Pictilisib = compound: O[C@@H](COc1cccc2ncccc12)CN1CCN([C@@H]2c3ccccc3[C@@H]3[C@H](c4ccccc42)C3(F)F)CC1 [Zosuquidar] + CS(=O)(=O)N1CCN(Cc2cc3nc(-c4cccc5[nH]ncc45)nc(N4CCOCC4)c3s2)CC1 [Pictilisib] (partner 1 µM)
Outline: (§1)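 Lung cancer cell lines in 1536-well plates got either a single drug or a fixed anchor-drug dose together with five library-drug doses (not always all listed) in √10 steps, by pin tool, on the day after seeding. Nuclei were counted after 5 days, and relative viability is the treated-to-vehicle ratio of nuclei counts. Values are medians of duplicate plates.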

Zosuquidar + Olaparib = compound: O[C@@H](COc1cccc2ncccc12)CN1CCN([C@@H]2c3ccccc3[C@@H]3[C@H](c4ccccc42)C3(F)F)CC1 [Zosuquidar] + O=C(c1cc(Cc2n[nH]c(=O)c3ccccc23)ccc1F)N1CCN(C(=O)C2CC2)CC1 [Olaparib] (partner 8 µM)
Outline: as §1

Cabozantinib + Olaparib = compound: COc1cc2nccc(Oc3ccc(NC(=O)C4(C(=O)Nc5ccc(F)cc5)CC4)cc3)c2cc1OC [Cabozantinib] + O=C(c1cc(Cc2n[nH]c(=O)c3ccccc23)ccc1F)N1CCN(C(=O)C2CC2)CC1 [Olaparib] (partner 8 µM)
Outline: as §1

Cabozantinib + OSI-027 = compound: COc1cc2nccc(Oc3ccc(NC(=O)C4(C(=O)Nc5ccc(F)cc5)CC4)cc3)c2cc1OC [Cabozantinib] + COc1cccc2cc(-c3nc([C@H]4CC[C@H](C(=O)O)CC4)n4ncnc(N)c34)[nH]c12 [OSI-027] (partner 0.5 µM)
Outline: as §1

Row | Cell Line | relative viability (Zosuquidar + Pictilisib; first compound 0.01 µM) | relative viability (Zosuquidar + Pictilisib; first compound 0.03162 µM) | relative viability (Zosuquidar + Pictilisib; first compound 0.1 µM) | relative viability (Zosuquidar + Pictilisib; first compound 0.3162 µM) | relative viability (Zosuquidar + Pictilisib; first compound 1 µM) | relative viability (Zosuquidar + Olaparib; first compound 0.01 µM) | relative viability (Zosuquidar + Olaparib; first compound 0.03162 µM) | relative viability (Zosuquidar + Olaparib; first compound 0.3162 µM) | relative viability (Zosuquidar + Olaparib; first compound 1 µM) | relative viability (Cabozantinib + Olaparib; first compound 0.02 µM) | relative viability (Cabozantinib + Olaparib; first compound 0.06325 µM) | relative viability (Cabozantinib + Olaparib; first compound 0.2 µM) | relative viability (Cabozantinib + Olaparib; first compound 0.6325 µM) | relative viability (Cabozantinib + Olaparib; first compound 2 µM) | relative viability (Cabozantinib + OSI-027; first compound 0.02 µM) | relative viability (Cabozantinib + OSI-027; first compound 0.06325 µM) | relative viability (Cabozantinib + OSI-027; first compound 0.2 µM) | relative viability (Cabozantinib + OSI-027; first compound 0.6325 µM) | relative viability (Cabozantinib + OSI-027; first compound 2 µM) | relative viability (Zosuquidar + Olaparib; first compound 0.1 µM)
1 | NCI-H2085 | 0.446 | 0.543 | 0.441 | 0.474 | 0.478 | 0.706 | 0.809 | 0.736 | 0.751 | 0.842 | 0.805 | 0.786 | 0.781 | 0.776 | 0.817 | 0.756 | 0.661 | 0.66 | 0.642 | 
2 | NCI-H661 | 0.351 | 0.419 |  | 0.404 | 0.361 | 0.718 | 0.731 | 0.727 | 0.759 | 0.786 | 0.79 | 0.779 | 0.875 | 0.825 | 0.667 | 0.686 | 0.673 | 0.675 | 0.687 | 0.737
3 | NCI-H1944 | 0.342 | 0.337 | 0.312 | 0.363 | 0.349 | 0.404 | 0.407 | 0.516 | 0.385 | 0.426 | 0.413 | 0.404 | 0.401 | 0.52 | 0.282 | 0.425 | 0.389 | 0.444 | 0.402 | 0.384
4 | NCI-H2170 | 0.295 | 0.266 | 0.312 | 0.345 | 0.281 | 0.546 | 0.629 | 0.63 | 0.562 | 0.66 | 0.682 | 0.538 | 0.576 | 0.684 | 0.724 | 0.752 | 0.608 | 0.732 | 0.731 | 0.612
5 | NCI-H322M | 0.494 | 0.577 | 0.371 | 0.519 | 0.534 | 0.774 | 0.898 | 0.698 | 0.796 | 0.831 | 0.902 | 0.695 | 0.781 | 0.675 | 0.475 | 0.596 | 0.486 | 0.572 | 0.54 | 0.665
6 | LCLC-103H | 0.541 | 0.569 | 0.542 | 0.607 | 0.737 | 0.743 | 0.721 | 0.759 | 0.695 | 0.77 | 0.796 | 0.779 | 0.79 | 0.729 | 0.344 | 0.561 | 0.487 | 0.509 | 0.394 | 0.808
7 | NCI-H647 | 0.493 | 0.316 | 0.463 | 0.4 | 0.466 | 0.564 | 0.519 | 0.674 | 0.566 | 0.715 | 0.656 | 0.523 | 0.537 | 0.51 | 0.589 | 0.633 | 0.641 | 0.636 | 0.548 | 0.559
8 | NCI-H1792 | 0.355 | 0.267 | 0.243 | 0.311 | 0.335 | 0.334 | 0.424 | 0.422 | 0.396 |  | 0.56 | 0.419 | 0.317 | 0.373 |  | 0.75 | 0.697 | 0.664 | 0.531 | 0.339
9 | LK-2 | 0.625 | 0.529 | 0.576 | 0.59 | 0.53 | 0.542 | 0.891 | 0.752 | 0.852 | 0.57 | 0.791 | 0.815 | 0.697 | 0.667 | 0.158 | 0.193 | 0.211 | 0.229 | 0.225 | 0.597
10 | NCI-H1755 | 0.415 | 0.452 | 0.318 | 0.497 | 0.484 | 0.873 | 0.88 | 0.92 | 0.867 | 0.868 | 0.898 | 0.872 | 0.785 | 0.79 | 0.627 | 0.729 | 0.775 | 0.585 | 0.575 | 0.778
11 | EPLC-272H | 0.308 | 0.344 | 0.311 | 0.272 | 0.35 | 0.755 | 0.912 | 0.96 | 0.745 | 0.906 | 0.787 | 0.648 | 0.884 | 0.597 | 0.257 | 0.326 | 0.215 | 0.345 | 0.29 | 0.909
12 | NCI-H2228 | 0.296 | 0.437 | 0.633 | 0.459 | 0.26 | 0.626 | 0.51 | 0.64 | 0.936 | 0.769 | 0.924 | 0.742 | 0.602 | 0.573 | 0.495 | 0.871 | 0.576 | 0.449 | 0.508 | 0.61
